Measurements reported in patent US20230312578A1, “6H-INDOLO[2,3-B]QUINOXALINE DERIVATIVES USEFUL IN THERAPY” (Vironova Medical AB, priority 2020, published 2023).
Where two headings read alike, the source gives them in different places.

Key:
Assay type in all cases: cell-based
HCT-15 = test: Human tumor cell line growth assay (SRB); conditions: Homo sapiens; Colon, HCT-15, 48 h
[1] = Human tumor cell line growth assay (SRB); conditions: human, HCT-15 cells (colon), HCT-15, 48 h
[2] = Human tumor cell line growth assay (SRB); conditions: human, SK-MEL-5 cells (melanoma), SK-MEL-5, 48 h
SK-MEL-5 = test: Human tumor cell line growth assay (SRB); conditions: Homo sapiens; Melanoma, SK-MEL-5, 48 h
NCI/ADR-RES = test: Human tumor cell line growth assay (SRB); conditions: Ovarian, 48 h; for CC50: read-out: LC50 (the source's name)
[3] = Human tumor cell line growth assay (SRB); conditions: human, SR cells (leukemia), read-out: LC50
SR = test: Human tumor cell line growth assay (SRB); conditions: Homo sapiens, Leukemia, 48 h
[4] = Human tumor cell line growth assay (SRB); conditions: human, SF-295 cells (CNS), SF-295, 48 h, read-out: LC50
SF-295 = test: Human tumor cell line growth assay (SRB); conditions: Homo sapiens; CNS, SF-295, 48 h
786-0 = test: Human tumor cell line growth assay (SRB); conditions: Renal, 786-0, 48 h
DU-145 = test: Human tumor cell line growth assay (SRB); conditions: Prostate, DU-145, 48 h; for CC50: read-out: LC50 (the source's name)
HL-60(TB) = test: Human tumor cell line growth assay (SRB); conditions: Leukemia, 48 h
KM12 = test: Human tumor cell line growth assay (SRB); conditions: Homo sapiens; Colon, KM12, 48 h
[5] = Human tumor cell line growth assay (SRB); conditions: human, KM12 cells (colon), KM12, 48 h, read-out: LC50
LOX IMVI = test: Human tumor cell line growth assay (SRB); conditions: Homo sapiens, Melanoma, 48 h
[6] = Human tumor cell line growth assay (SRB); conditions: human, LOX IMVI cells (melanoma), read-out: LC50
MDA-MB-468 = test: Human tumor cell line growth assay (SRB); conditions: Breast, MDA-MB-468, 48 h; for CC50: read-out: LC50 (the source's name)
RPMI-8226 = test: Human tumor cell line growth assay (SRB); conditions: Homo sapiens; Leukemia, RPMI-8226, 48 h
UO-31 = test: Human tumor cell line growth assay (SRB); conditions: Renal, UO-31, 48 h; for CC50: read-out: LC50 (the source's name)
EKVX = test: Human tumor cell line growth assay (SRB); conditions: Homo sapiens, NSCLC, 48 h
[7] = Human tumor cell line growth assay (SRB); conditions: human, EKVX cells (NSCLC), read-out: LC50
HT29 = test: Human tumor cell line growth assay (SRB); conditions: Homo sapiens, HT-29; Colon, HT29, 48 h
[8] = Human tumor cell line growth assay (SRB); conditions: human, HT29 cells (colon), HT29, 48 h, read-out: LC50
[9] = Human tumor cell line growth assay (SRB); conditions: human, MOLT-4 cells (leukemia), MOLT-4, 48 h, read-out: LC50
MOLT-4 = test: Human tumor cell line growth assay (SRB); conditions: Homo sapiens; Leukemia, MOLT-4, 48 h
OVCAR-8 = test: Human tumor cell line growth assay (SRB); conditions: Ovarian, OVCAR-8, 48 h; for CC50: read-out: LC50 (the source's name)
OVCAR-4 = test: Human tumor cell line growth assay (SRB); conditions: Homo sapiens; Ovarian, OVCAR-4, 48 h
[10] = Human tumor cell line growth assay (SRB); conditions: human, OVCAR-4 cells (ovarian), OVCAR-4, 48 h, read-out: LC50
[11] = Human tumor cell line growth assay (SRB); conditions: human, SNB-75 cells (CNS), SNB-75, 48 h
SNB-75 = test: Human tumor cell line growth assay (SRB); conditions: Homo sapiens; CNS, SNB-75, 48 h
SN12C = test: Human tumor cell line growth assay (SRB); conditions: Renal, 48 h; for CC50: read-out: LC50 (the source's name)
[12] = Human tumor cell line growth assay (SRB); conditions: human, NCI-H322M cells (NSCLC), read-out: LC50
NCI-H322M = test: Human tumor cell line growth assay (SRB); conditions: Homo sapiens, NSCLC, 48 h
[13] = Human tumor cell line growth assay (SRB); conditions: human, HOP-62 cells (NSCLC), HOP-62, 48 h, read-out: LC50
HOP-62 = test: Human tumor cell line growth assay (SRB); conditions: Homo sapiens; NSCLC, HOP-62, 48 h
BT-549 = test: Human tumor cell line growth assay (SRB); conditions: Breast, BT-549, 48 h; for CC50: read-out: LC50 (the source's name)
RXF 393 = test: Human tumor cell line growth assay (SRB); conditions: Renal, RXF 393, 48 h; for CC50: read-out: LC50 (the source's name)
[14] = Human tumor cell line growth assay (SRB); conditions: human, UACC-62 cells (melanoma), UACC-62, 48 h, read-out: LC50

With Cc1cc2nc3c4cc(N)ccc4n(CCN(C)C)c3nc2cc1C [JBD-136, 6-(2-(dimethylamino)ethyl)-2,3-dimethyl-6H-indolo [2,3-b]quinoxalin-9-amine] the GI50 (HCT-15) was 0.528 µM, the LC50 (concentration killing 50% of cells) at 48 h [1] was greater than 100 µM and the LC50 (concentration killing 50% of tumour cells) at 48 h [2] was 5.72 µM. For the same molecule, the GI50 (SK-MEL-5) was 1.69 µM, the GI50 (NCI/ADR-RES) was 0.506 µM and the CC50 (NCI/ADR-RES) was greater than 100 µM. It also gave a CC50 at 48 h [3] greater than 100 µM, a GI50 (SR) of 0.239 µM and a CC50 at 48 h [4] of 33.8 µM. It also gave a GI50 (SF-295) of 1.24 µM, a GI50 (786-0) of 1.52 µM and an LC50 (786-0) of 38.5 µM. For the same molecule, the GI50 (DU-145) was 1.55 µM, the CC50 (DU-145) was 47.8 µM and the GI50 (HL-60(TB)) was 1.21 µM. The CC50 (HL-60(TB); read-out: LC50 (the source's name)) was 21.9 µM, the GI50 (KM12) was 1.2 µM and the CC50 at 48 h [5] was 94.7 µM. The GI50 (LOX IMVI) was 0.494 µM, the CC50 at 48 h [6] was 21.8 µM and the GI50 (MDA-MB-468) was 1.03 µM. For the same molecule, the CC50 (MDA-MB-468) was 8.28 µM, the GI50 (RPMI-8226) was 0.74 µM and the GI50 (UO-31) was 0.332 µM. It also gave a CC50 (UO-31) of 55.3 µM, a GI50 (EKVX) of 1.99 µM and a CC50 at 48 h [7] greater than 100 µM. The GI50 (HT29) was 0.43 µM, the CC50 at 48 h [8] was greater than 100 µM and the CC50 at 48 h [9] was 71.9 µM. It also gave a GI50 (MOLT-4) of 0.366 µM, a GI50 (OVCAR-8) of 0.556 µM and a CC50 (OVCAR-8) greater than 100 µM. The GI50 (OVCAR-4) was 1.7 µM, the CC50 at 48 h [10] was 59 µM and the LC50 (concentration killing 50% of cells) at 48 h [11] was 24.8 µM. For the same molecule, the GI50 (SNB-75) was 1.25 µM, the GI50 (SN12C) was 0.553 µM and the CC50 (SN12C) was greater than 100 µM. For the same molecule, the CC50 at 48 h [12] was greater than 100 µM, the GI50 (NCI-H322M) was 0.771 µM and the CC50 at 48 h [13] was greater than 100 µM. It also gave a GI50 (HOP-62) of 1.14 µM, a GI50 (BT-549) of 1.78 µM and a CC50 (BT-549) of 27.9 µM. For the same molecule, the GI50 (RXF 393) was 1.13 µM, the CC50 (RXF 393) was 6.4 µM and the CC50 at 48 h [14] was 7.99 µM.
For Cc1cc2nc3c4cc(O)ccc4n(CCN(C)C)c3nc2cc1C [JBD-139, 6-(2-(dimethylamino)ethyl)-2,3-dimethyl-6H-indolo [2,3-b]quinoxalin-9-ol], the GI50 (HCT-15) was 0.405 µM, the LC50 (concentration killing 50% of cells) at 48 h [1] was greater than 100 µM and the LC50 (concentration killing 50% of tumour cells) at 48 h [2] was 5.33 µM. For the same molecule, the GI50 (SK-MEL-5) was 1.45 µM, the GI50 (NCI/ADR-RES) was 0.436 µM and the CC50 (NCI/ADR-RES) was greater than 100 µM. It also gave a CC50 at 48 h [3] greater than 100 µM, a GI50 (SR) of 0.289 µM and a CC50 at 48 h [4] greater than 100 µM. For the same molecule, the GI50 (SF-295) was 0.756 µM, the GI50 (786-0) was 0.707 µM and the GI50 (DU-145) was 0.598 µM. It also gave a CC50 (DU-145) greater than 100 µM, a GI50 (HL-60(TB)) of 0.356 µM and a GI50 (KM12) of 0.512 µM. The GI50 (LOX IMVI) was 0.338 µM, the GI50 (MDA-MB-468) was 0.518 µM and the CC50 (MDA-MB-468) was greater than 100 µM. The GI50 (RPMI-8226) was 0.366 µM, the GI50 (UO-31) was 1.39 µM and the CC50 (UO-31) was 4.18 µM. The GI50 (EKVX) was 1.1 µM, the GI50 (HT29) was 0.379 µM and the CC50 at 48 h [8] was greater than 100 µM. It also gave a CC50 at 48 h [9] greater than 100 µM, a GI50 (MOLT-4) of 0.359 µM and a GI50 (OVCAR-8) of 0.412 µM. The CC50 (OVCAR-8) was greater than 100 µM, the GI50 (OVCAR-4) was 0.882 µM and the LC50 (concentration killing 50% of cells) at 48 h [11] was greater than 100 µM. For the same molecule, the GI50 (SNB-75) was 0.214 µM, the GI50 (SN12C) was 0.397 µM and the CC50 (SN12C) was greater than 100 µM. It also gave a CC50 at 48 h [12] greater than 100 µM, a GI50 (NCI-H322M) of 0.516 µM and a CC50 at 48 h [13] greater than 100 µM. It also gave a GI50 (HOP-62) of 0.569 µM, a GI50 (BT-549) of 1.84 µM and a CC50 (BT-549) greater than 100 µM. The GI50 (RXF 393) was 0.671 µM, the CC50 (RXF 393) was 5.96 µM and the CC50 at 48 h [14] was 6.37 µM.
